Our source for the IC50 values is BindingDB's records for doi:10.1021/jm00073a011 (Glaxo Group Research, 1993).

pIC50: −log10 of the molar value.

For this assay, the target named is T1, Dimer of Gag-Pol polyprotein [489-587] (Human immunodeficiency virus 1, UniProt P12497).
T1 construct: 489-587
Kind of assay: Protease Inhibition Assay. To be noted: pH 6; 37 °C. The procedure: IC50 values were obtained by assaying the enzyme against the synthetic substrate peptide […], which was tritiated at the proline residue, and then was coupled via its N-terminal lysine to an Affi-gel bead mixture. The assay was performed in 96-well microtiter filtration plates. The plates containing HIV protease and radiolabeled substrate beads were incubated with or without inhibitor. […] IC50 determinations were performed in duplicate at each concentration with mean values used for data analysis.
As usually defined, the pIC50 is −log10 of the IC50, conventionally taken in molar units. Low readings indicate a high IC50, high ones a low IC50. In the case of `CCNC(=O)[C@@H](NC(=O)Cc1ccccc1)[C@@H]1N[C@@H](C(=O)NCCNC(=O)[C@@H]2N[C@@H]([C@H](NC(=O)Cc3ccccc3)C(=O)NCC)SC2(C)C)C(C)(C)S1`, the pIC50 was 8.32. On to `COC(=O)[C@@H](NC(=O)Cc1ccccc1)[C@@H]1N[C@@H](C(=O)NCCNC(=O)[C@@H]2N[C@@H]([C@H](NC(=O)Cc3ccccc3)C(=O)OC)SC2(C)C)C(C)(C)S1` [[2R-[2a(R*),4B ] ]-4,4-[1,2-Ethanediylbis[aminocarbonyl] ]-bis[5,5-dimethyl-a-[ (phenylacetyl)amino]-2-thiazolidineacetic acid, methyl ester]], for which the pIC50 was 7.22. In turn, `CC1(C)S[C@H]([C@H](NC(=O)Cc2ccccc2)C(N)=O)N[C@H]1C(=O)NCCNC(=O)[C@@H]1N[C@@H]([C@H](NC(=O)Cc2ccccc2)C(N)=O)SC1(C)C` gave a pIC50 of 8.52.
